# Test results as given in patent publication US5545545A, “Lysine-insensitive maize dihydrodipicolinic acid synthase” (priority 1993, dated 1996).
# Where two headings read alike, the source gives them in different places.
# How the values were obtained:
# [1] = target: T1, wildtype E. coli DHPS from 71-18dapA+ (Escherichia coli, UniProt P0A6L2); experiment: DHPS activity in crude lysate of wildtype 71-18dapA+ cells, with or without lysine; type: biochemical
# T1 construct: Crude lysates from wildtype 71-18dapA; endogenous in cells; host or cells: E. coli 71-18 (dapA+), crude desalted lysate
# Procedure: (§1) Crude lysates from wildtype 71-18dapA^+ cells, AT997dapA^- transformed with pUC13 lacking a cDNA insert, and the five complementing transformant cell lines AT997(pZM DHPS1) to AT997(pZM DHPS5) were assayed for DHPS activity. The transformed cells were grown overnight in M9 medium+100 μM DAP, collected by centrifugation at 5000×g for 10 min and resuspended in 1/10 volume of extraction buffer (100 mM TRIS-HCl, pH 8.0, 100 mM NaCl, 100 mM pyruvate). Cells were placed briefly on ice, disrupted by sonication (60 W, 15 s) and debris removed by centrifugation at 15000×g for 15 min. The supernatant was desalted on a G25 Sephadex column equilibrated with 10 mM TRIS-HCl, pH 8.0 and 1 mM EDTA and used for enzyme assays.
# (§2) The DHPS assay buffer (R. M. Wallsgrove et al., Phytochem., 20, 2651 (1981)) contained 100 mM TRIS-HCl, pH 8.0, 10 mM pyruvate, 1.4 mM aspartate semialdehyde neutralized just prior to use, and 100 μl enzyme in a final volume of 250 μl. Tubes were incubated at 37° C. for 30 min and reactions stopped by addition of 1 ml of 0.22M sodium citrate, 0.55M sodium phosphate, pH 5.0 and 0.25 mg/ml-aminobenzaldehyde. The colored reaction product was allowed to form for 3 hr at 37° C. and samples were centrifuged at 10000 g. Activity units (0.001 OD/min) were determined at 520 nm; standard errors of replicate assays were routinely <2% of the mean.
# [2] = system: maize DHPS (cDNA expression product in AT997dapA- transformants); experiment: DHPS activity in crude lysates of AT997dapA- transformants pZM DHPS1 to pZM DHPS5, with or without lysine; type: biochemical; settings: for % Inhibition: 100 μM lysine
# Procedure: as §1, §2
# [3] = target: T2, Purified DHPS from Black Mexican Sweet maize (Zea mays, UniProt P26259); experiment: DHPS activity of purified maize DHPS, with or without lysine; type: biochemical
# T2 construct: from tissue; host or cells: Black Mexican Sweet maize suspension cultures (endogenous enzyme, purified more than 4000-fold)
# T2 sequence (P26259 55-380): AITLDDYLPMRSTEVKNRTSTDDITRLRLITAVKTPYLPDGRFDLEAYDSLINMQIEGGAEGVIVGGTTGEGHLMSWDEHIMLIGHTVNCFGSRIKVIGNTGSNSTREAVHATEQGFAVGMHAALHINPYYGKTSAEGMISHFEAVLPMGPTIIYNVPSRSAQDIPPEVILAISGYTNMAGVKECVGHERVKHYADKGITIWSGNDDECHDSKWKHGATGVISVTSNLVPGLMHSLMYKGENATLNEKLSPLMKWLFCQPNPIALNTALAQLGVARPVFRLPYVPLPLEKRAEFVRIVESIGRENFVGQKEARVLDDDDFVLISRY
# Procedure: as §2
# The putative start of the coding region for maize DHPS was established by comparison of the N-terminus amino acid sequence of SDS-PAGE purified DHPS monomer with the amino acid sequence derived from the nucleotide sequence. DHPS was purified more than 4000-fold with 25% recovery from Black Mexican Sweet maize suspension cultures by the procedure of D. A. Frisch et al., Plant Physiol., 96, 444 (1991). Only one protein band (ca. 130000 Mr) was detected by silver-staining after native polyacrylamide gel electrophoresis (PAGE) and this band corresponded to the position of DHPS activity. […]
# native Zea mays DHPS [4] = target: T3, native Zea mays DHPS (Zea mays, UniProt P26259); experiment: Lysine feedback inhibition of native maize DHPS in vitro; type: biochemical; settings: native Zea mays DHPS / native plant DHP synthase, read-out: I50 of feedback inhibition by lysine
# T3 construct: host or cells: maize cells (highly purified DHPS)
# T3 sequence (P26259 55-380): T2 sequence (P26259 55-380)
# Excerpt: For example, novel plants resulting from the present method contain extractable lysine levels at least about ten times, and preferably, at least about 50 times, e.g., about 50-250 times higher than plants of the same species which contain only native DHPS.
# This difference in lysine sensitivity was an additional indication that the cDNA inserts were from maize and that restoration of DHPS activity in the E. coli mutant was not caused by reversion of the dapA^- allele or due to an interaction with pUC13 plasmid DNA. In preliminary tests of partially purified DHPS from cell line pZM DHPS5, the [I]0.5 value for lysine was determined to be in the range of 20 to 30 μM.
# [5] = system: wildtype maize DHPS (pZM DHPS5B) fusion protein expressed in AT997 E. coli; experiment: Lysine inhibition of partially purified wildtype maize DHPS fusion protein (FIG. 4); type: biochemical
# Procedure: (§3) AT997 cells (approximately 1 ml packed vol), containing plasmids pZM DHPS5B, pZM DHPS-M1 or pZM DHPS-M2, were extracted by sonication (60 W, 20 s) into 5 ml of ice cold buffer containing (100 mM TRIS-HCl, pH 8.0, 100 mM NaCl, 50 mM pyruvate) and then centrifuged at […] for 10 min. The supernatant was placed in a water bath (60° C.) for 5 min, cooled to 4° C. and centrifuged. The resulting supernatant was desalted on a Sephadex G50 column in 10 mM TRIS-HCl, pH 8.0, and 1 mM EDTA.
# (§4) DHPS activity was determined as described in Example 2 except that the reaction was stopped after 2 min; at longer reaction times, activity was not linear with time. The volume of enzyme was adjusted so that the absorbance at 520 nm increased approximately 0.1 A (=100 activity units) after 2 min for standard control assays. Lysine concentrations were varied from 0.01 mM to 1.0 mM in the presence of constant concentrations of the substrates pyruvate (20 mM) and aspartate semialdehyde (1.4 mM). The average of two or three assays were used to determine enzyme activity values and percent inhibition by lysine.
# [6] = target: T4, altered maize DHPS (pZM DHPS-M1) fusion protein expressed in AT997 E. coli (Zea mays, UniProt P26259, A166V/R367Q); experiment: Lysine inhibition of partially purified mutant DHPS-M1 fusion protein (FIG. 4); type: biochemical
# T4 construct: made in house; host or cells: E. coli AT997 dapA- (pZM DHPS-M1), heat-treated, desalted extract
# Procedure: as §3, §4
# [7] = target: T5, altered maize DHPS (pZM DHPS-M2) fusion protein expressed in AT997 E. coli (Zea mays, UniProt P26259); experiment: Lysine inhibition of partially purified mutant DHPS-M2 fusion protein (FIG. 4); type: biochemical; settings: L-lysine concentrations as high as 1.0 mM
# T5 construct: heat-treated, desalted extract
# Procedure: as §3, §4
# [8] = target: T6, DHPS from wildtype, nontransformed E. coli strain DH5A (Escherichia coli, UniProt P0A6L2); experiment: Lysine inhibition of DHPS from wildtype nontransformed E. coli (FIG. 4); type: biochemical; settings: lysine concentrations up to 1 mM
# T6 construct: DHPS from wildtype, nontransformed E. coli strain DH5A; endogenous in cells; host or cells: E. coli DH5A
# [9] = target: T7, altered maize DHPS (pZM DHPS-M3, threonine for alanine at position 112) (Zea mays, UniProt P26259, A166T/R367Q); experiment: Lysine sensitivity of DHPS activity of mutant pZM DHPS-M3; type: biochemical
# T7 construct: the 380 amino acids of the maize cDNA coding region; beta-galactosidase N-terminal residues (5 aa) (N); vector polylinker (18 aa) (N); translated 5' untranslated region of the cDNA (13 aa) (N); made in house; host or cells: E. coli AT997 dapA- (inferred from the repeated mutagenesis and selection protocol)
# Excerpt: (§5) Additional independently derived mutations in maize DHPS were obtained by repeating the mutagenesis and selection protocol in separate experiments. […] Mutant plasmid pZM DHPS-M3 has a nucleotide change at position #496 (ACA instead of GCA); this change causes substitution of threonine for alanine at the same amino acid position (112) as altered in mutant pZM DHPS-M1. Mutant plasmid pZM DHPS-M4 has a nucleotide change at position #484 (AAA instead of GAA); this change causes substitution of lysine for glutamic acid at amino acid position #108.
# [10] = target: T8, altered maize DHPS (pZM DHPS-M4, lysine for glutamic acid at position 108) (Zea mays, UniProt P26259, E162K/R367Q); experiment: Lysine sensitivity of DHPS activity of mutant pZM DHPS-M4; type: biochemical
# T8 construct: the 380 amino acids of the maize cDNA coding region; beta-galactosidase N-terminal residues (5 aa) (N); vector polylinker (18 aa) (N); translated 5' untranslated region of the cDNA (13 aa) (N); made in house; host or cells: E. coli AT997 dapA- (inferred from the repeated mutagenesis and selection protocol)
# Excerpt: as §5
# native Zea mays DHPS [11] = target: T3, native Zea mays DHPS; settings: highly purified DHPS from maize cells; Frisch et al., Plant Physiol., 96, 444 (1991); read-out: [I]0.5 value for lysine; cited from earlier work
# T4 sequence (P26259 whole entry A166V/R367Q, the tested form may be a part): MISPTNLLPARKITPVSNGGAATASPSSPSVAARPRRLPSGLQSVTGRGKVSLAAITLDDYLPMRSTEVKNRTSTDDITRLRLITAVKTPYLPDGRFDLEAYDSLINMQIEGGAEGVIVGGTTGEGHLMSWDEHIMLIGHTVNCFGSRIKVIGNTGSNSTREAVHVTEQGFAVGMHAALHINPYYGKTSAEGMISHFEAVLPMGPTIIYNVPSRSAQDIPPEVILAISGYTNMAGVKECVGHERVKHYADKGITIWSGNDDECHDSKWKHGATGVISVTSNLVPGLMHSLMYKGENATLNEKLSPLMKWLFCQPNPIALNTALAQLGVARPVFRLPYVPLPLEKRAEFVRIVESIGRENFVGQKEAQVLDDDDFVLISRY
# T1 sequence (P0A6L2 whole entry): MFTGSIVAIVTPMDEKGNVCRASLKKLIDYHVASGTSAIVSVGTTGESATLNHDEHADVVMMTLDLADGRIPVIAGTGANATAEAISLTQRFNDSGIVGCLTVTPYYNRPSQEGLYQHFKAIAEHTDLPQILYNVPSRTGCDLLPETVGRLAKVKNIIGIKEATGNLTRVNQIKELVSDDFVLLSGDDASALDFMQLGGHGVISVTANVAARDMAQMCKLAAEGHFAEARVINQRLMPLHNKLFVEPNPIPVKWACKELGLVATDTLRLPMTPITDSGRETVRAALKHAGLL
# T5 sequence (P26259 whole entry, the tested form may be a part): as the sequence (P26259 whole entry A166V/R367Q, the tested form may be a part) above, with V166A, Q367R counted along it
# T6 sequence (P0A6L2 whole entry): as the sequence (P0A6L2 whole entry) above
# T7 sequence (P26259 whole entry A166T/R367Q): as the sequence (P26259 whole entry A166V/R367Q, the tested form may be a part) above, with V166T counted along it
# T8 sequence (P26259 whole entry E162K/R367Q): as the sequence (P26259 whole entry A166V/R367Q, the tested form may be a part) above, with E162K, V166A counted along it
compound,measurement,setting,value
"NCCCC[C@H](N)C(=O)O [lysine, L-lysine]","Specific Activity, 100 μM Lysine",[1]; 71-18dapA+ crude lysate,120 0.001 OD520 /min per milligram
same,inhibition at 100 µM,"[1]; 71-18dapA+, 100 μM lysine",8%
same,"Specific Activity, 100 μM Lysine",[2]; AT997dapA- (pZM DHPS1),24 0.001 OD520 /min per milligram
same,% Inhibition,[2]; AT997dapA- (pZM DHPS1),90%
same,"Specific Activity, 100 μM Lysine",[2]; AT997dapA- (pZM DHPS2),15 0.001 OD520 /min per milligram
same,% Inhibition,[2]; AT997dapA- (pZM DHPS2),91%
same,"Specific Activity, 100 μM Lysine",[2]; AT997dapA- (pZM DHPS3),22 0.001 OD520 /min per milligram
same,% Inhibition,[2]; AT997dapA- (pZM DHPS3),88%
same,"Specific Activity, 100 μM Lysine",[2]; AT997dapA- (pZM DHPS4),42 0.001 OD520 /min per milligram
same,% Inhibition,[2]; AT997dapA- (pZM DHPS4),86%
same,"Specific Activity, 100 μM Lysine",[2]; AT997dapA- (pZM DHPS5),27 0.001 OD520 /min per milligram
same,% Inhibition,[2]; AT997dapA- (pZM DHPS5),90%
same,inhibition at 100 µM,[3]; 100 μM lysine,97%
same,"DHPS activity, 100 μM Lysine",[3]; specific activity not determined (footnote b),8 units of DHPS activity
same,IC50,native Zea mays DHPS [4],25 µM
same,inhibition of wildtype maize DHPS activity,"[5]; 100 μM lysine, E. coli transformants",more than 90%
same,inhibition of DHPS activity by lysine,"[5]; pZM DHPS5B, lysine concentrations as low as 25 μM",significantly inhibited
same,inhibition of DHPS activity by lysine,"[6]; DHPS expressed from SEQ ID NO. 1 in E. coli transformants, 1000 μM lysine",not inhibited
same,reduction in sensitivity to lysine versus native Zea mays DHPS,[6]; altered Zea mays DHPS of SEQ ID NO. 2,more than 400 times
same,"L-lysine level at which altered DHPS is active, relative to native DHPS","[6]; altered maize DHPS of the invention, in vitro",at least 100 fold
same,inhibition of DHPS activity by L-lysine,"[6]; pZM DHPS-M1, L-lysine concentrations as high as 1.0 mM",not inhibited
same,inhibition of DHPS activity by L-lysine,[7],not inhibited
same,inhibition of DHPS activity by lysine,[8],intermediate level of inhibition
same,lysine sensitivity of DHPS activity,[9],lysine insensitivity
same,lysine sensitivity of DHPS activity,[10],lysine insensitivity
same,IC50,native Zea mays DHPS [11],23 µM
